This passage reports inhibition results from ChEMBL document CHEMBL2073797, “Characterization of an organic anion-transporting polypeptide (OATP-B) in human placenta” (J Clin Endocrinol Metab, 2002).

Counter-ions that a name gives are not always drawn.

In the data set the target is T1, Solute carrier organic anion transporter family member 2B1 (OATP2B1) (Homo sapiens, UniProt O94956).
T1 sequence (O94956 whole entry): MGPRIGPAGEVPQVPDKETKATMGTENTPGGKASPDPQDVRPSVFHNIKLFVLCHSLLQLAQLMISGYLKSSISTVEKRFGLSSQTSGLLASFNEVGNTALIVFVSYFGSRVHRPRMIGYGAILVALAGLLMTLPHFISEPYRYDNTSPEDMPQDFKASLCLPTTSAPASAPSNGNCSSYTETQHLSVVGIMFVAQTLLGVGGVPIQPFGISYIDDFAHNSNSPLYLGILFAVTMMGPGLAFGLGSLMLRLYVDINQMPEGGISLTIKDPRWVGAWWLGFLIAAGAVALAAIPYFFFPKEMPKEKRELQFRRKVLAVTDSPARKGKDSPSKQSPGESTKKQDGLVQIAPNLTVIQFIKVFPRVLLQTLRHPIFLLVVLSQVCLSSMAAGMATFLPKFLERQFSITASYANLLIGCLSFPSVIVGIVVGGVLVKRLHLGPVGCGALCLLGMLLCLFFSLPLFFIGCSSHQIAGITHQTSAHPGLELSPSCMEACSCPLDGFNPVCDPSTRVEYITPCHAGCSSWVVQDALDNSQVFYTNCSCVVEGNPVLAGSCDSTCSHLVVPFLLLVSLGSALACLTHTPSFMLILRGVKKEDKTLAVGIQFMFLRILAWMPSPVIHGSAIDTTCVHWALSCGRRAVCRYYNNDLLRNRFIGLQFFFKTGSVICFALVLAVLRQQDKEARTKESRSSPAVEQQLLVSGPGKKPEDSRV
Kind of data set: TP_TRANSPORTER: inhibition of Estrone-3-sulfate uptake (Estrone-3-sulfate: 1 uM, Pregnenolone sulfate: 100 uM) in Xenopus laevis oocytes. The following applies: Xenopus laevis oocytes expressing OATP2B1 (SLCO2B1), probe Estrone-3-sulfate (1 uM). Format: functional, cell-based, Oocyte.

In turn, `CC(=O)[C@H]1CC[C@H]2[C@@H]3CC=C4C[C@@H](OS(=O)(=O)O)CC[C@]4(C)[C@H]3CC[C@]12C` [PREGNENOLONE SULFATE] had an inhibition at 100 µM of 83%.

In general, inhibition refers to the change of the read-out against control, counted positive when it falls.
